Source: patent US10118916B2, “Modulators of cystic fibrosis transmembrane conductance regulator protein” (AbbVie S.à.r.l., priority 2016, dated 2018)

Molecular target: T1, F508delCFTR (Homo sapiens, UniProt P13569, DEL508-508)
T1 construct: expressed in transfected cells; host or cells: CFBE41o- (human lung derived epithelial cell line), doxycycline-inducible
Experiment: Cell Surface Expression-Horse Radish Peroxidase (CSE-HRP) assay
Format: cell-based
Conditions: CFBE41o-F508delCFTR-HRP cells; for EC50: F508delCFTR cell surface expression, luminescence, 18-24 hours at 33° C., highest concentration 20 μM; for Maximum % activity: maximum at any tested concentration, normalized to on-plate positive control (3 μM)
Procedure, shortened: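 CFBE41o- cells expressing doxycycline-induced (0.5 μg/mL, 72 h at 37 °C) F508delCFTR with HRP in the fourth extracellular loop; compounds 8 points, 3-fold from 20 μM, 18-24 h at 33 °C. Surface HRP measured by luminol luminescence, normalised to DMSO and 3 μM reference corrector; EC50 from variable-slope sigmoidal fit of triplicate plates.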

T1 sequence (P13569 with tags, fused parts or gaps DEL508-508): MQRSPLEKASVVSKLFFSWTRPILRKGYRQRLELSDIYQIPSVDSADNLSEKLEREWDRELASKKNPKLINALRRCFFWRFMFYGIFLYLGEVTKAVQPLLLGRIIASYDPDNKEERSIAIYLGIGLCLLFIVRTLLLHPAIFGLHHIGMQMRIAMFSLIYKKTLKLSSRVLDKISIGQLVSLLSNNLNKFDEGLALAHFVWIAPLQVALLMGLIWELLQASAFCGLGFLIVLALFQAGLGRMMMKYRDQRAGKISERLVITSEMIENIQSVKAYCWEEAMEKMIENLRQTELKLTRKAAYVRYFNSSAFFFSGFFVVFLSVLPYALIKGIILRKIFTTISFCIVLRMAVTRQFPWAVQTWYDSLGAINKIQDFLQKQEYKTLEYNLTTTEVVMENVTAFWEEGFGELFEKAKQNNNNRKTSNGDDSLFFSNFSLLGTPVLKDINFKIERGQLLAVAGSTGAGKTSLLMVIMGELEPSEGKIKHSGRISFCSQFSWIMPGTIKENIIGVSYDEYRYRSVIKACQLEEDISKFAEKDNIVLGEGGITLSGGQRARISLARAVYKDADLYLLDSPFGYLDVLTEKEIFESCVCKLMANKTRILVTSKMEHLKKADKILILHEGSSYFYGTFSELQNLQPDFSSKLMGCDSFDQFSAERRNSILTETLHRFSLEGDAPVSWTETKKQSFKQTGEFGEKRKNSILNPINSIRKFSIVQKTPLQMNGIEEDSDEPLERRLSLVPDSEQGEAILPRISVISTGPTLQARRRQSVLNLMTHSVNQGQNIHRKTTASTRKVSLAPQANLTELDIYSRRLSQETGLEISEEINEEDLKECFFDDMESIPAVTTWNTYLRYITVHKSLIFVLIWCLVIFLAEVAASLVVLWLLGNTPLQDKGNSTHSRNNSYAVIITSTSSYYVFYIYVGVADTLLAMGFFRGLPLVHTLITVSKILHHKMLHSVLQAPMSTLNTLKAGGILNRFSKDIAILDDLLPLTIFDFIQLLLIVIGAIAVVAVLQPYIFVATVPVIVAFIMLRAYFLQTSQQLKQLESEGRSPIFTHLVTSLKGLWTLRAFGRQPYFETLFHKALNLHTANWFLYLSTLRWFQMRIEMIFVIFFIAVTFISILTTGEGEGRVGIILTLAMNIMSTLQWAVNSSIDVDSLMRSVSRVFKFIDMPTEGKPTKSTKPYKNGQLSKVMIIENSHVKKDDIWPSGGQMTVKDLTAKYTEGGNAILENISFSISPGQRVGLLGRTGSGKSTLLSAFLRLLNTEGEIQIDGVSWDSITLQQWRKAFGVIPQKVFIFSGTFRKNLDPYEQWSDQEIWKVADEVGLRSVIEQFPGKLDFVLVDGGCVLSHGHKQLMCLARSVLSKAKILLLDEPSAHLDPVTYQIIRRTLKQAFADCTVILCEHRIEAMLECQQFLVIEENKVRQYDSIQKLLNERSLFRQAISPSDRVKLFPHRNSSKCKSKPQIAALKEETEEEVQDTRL

Row | Compound | EC50 | Maximum % activity
1 | C[C@]1(C(=O)N[C@@H]2C[C@H](c3ccc(C(=O)O)cc3)Oc3ccccc32)CCc2cc(Cl)ccc2O1 [Example 60, 4-[(2R,4R)-4-{[(2R)-6-chloro-2-methyl-3,4-dihydro-2H-1-benzopyran-2-carbonyl]amino}-3,4-dihydro-2H-1-benzopyran-2-yl]benzoic acid] | > 20000 nM | 2.3%
2 | COc1ccc2c(c1)O[C@@H](c1cccc(C(=O)O)c1)C[C@H]2NC(=O)C1(C)CCc2ccc(OC(F)(F)F)cc21 (stereo partly drawn) [Example 58, 3-[(2R,4R)-7-methoxy-4-{[1-methyl-6-(trifluoromethoxy)-2,3-dihydro-1H-indene-1-carbonyl]amino}-3,4-dihydro-2H-1-benzopyran-2-yl]benzoic acid] | 2220 nM | 20.4%
3 | C[C@]1(C(=O)N[C@@H]2C[C@H](c3cccc(C(=O)O)c3)Oc3ccccc32)Cc2cc(Cl)ccc2O1 [Example 26, 3-[(2R,4R)-4-{[(2R)-5-chloro-2-methyl-2,3-dihydro-1-benzofuran-2-carbonyl]amino}-3,4-dihydro-2H-1-benzopyran-2-yl]benzoic acid] | > 20000 nM | 1.6%
4 | COc1ccc2c(c1)O[C@@H](c1ccc(C(=O)O)cc1)C[C@H]2NC(=O)C1(c2ccc(Br)cc2)CCC1 [Example 104, 4-[(2R,4R)-4-{[1-(4-bromophenyl)cyclobutane-1-carbonyl]amino}-7-methoxy-3,4-dihydro-2H-1-benzopyran-2-yl]benzoic acid] | 1560 nM | 71.0%
5 | COc1ccc2c(c1)OC(c1ccc(OC)c(OC)c1)CC2NC(=O)C(C)(C)Oc1ccc(Cl)cc1 (stereo not shown) [Example 18, 2-(4-chlorophenoxy)-N-[2-(3,4-dimethoxyphenyl)-7-methoxy-3,4-dihydro-2H-1-benzopyran-4-yl]-2-methylpropanamide] | > 20000 nM | 5.5%
6 | COc1ccc2c(c1)O[C@@H](c1ccc(C(=O)O)cc1)C[C@H]2NC(=O)C1(c2ccc(Cl)c(Cl)c2)CCC1 [Example 95, 4-[(2R,4R)-4-{[1-(3,4-dichlorophenyl)cyclobutane-1-carbonyl]amino}-7-methoxy-3,4-dihydro-2H-1-benzopyran-2-yl]benzoic acid] | 1330 nM | 76.0%
7 | COc1ccc2c(c1)O[C@@H](c1ccc(C(=O)O)cc1)C[C@H]2NC(=O)C1(c2ccccc2C(F)(F)F)CCC1 [Example 82, 4-[(2R,4R)-7-methoxy-4-({1-[2-(trifluoromethyl)phenyl]cyclobutane-1-carbonyl}amino)-3,4-dihydro-2H-1-benzopyran-2-yl]benzoic acid] | 1880 nM | 23.3%
8 | 4-[(2R,4R)-4-(2-ethyl-2-phenylbutanamido)-7-methoxy-3,4-dihydro-2H-1-benzopyran-2-yl]benzoic acid [Example 79] | > 20000 nM | −0.3%
9 | COc1ccc2c(c1)O[C@@H](c1cccc(C(=O)O)c1)C[C@H]2NC(=O)C(C)(C)c1ccc(OCC(C)C)cc1 [Example 37, 3-[(2R,4R)-7-methoxy-4-{2-methyl-2-[4-(2-methylpropoxy)phenyl]propanamido}-3,4-dihydro-2H-1-benzopyran-2-yl]benzoic acid] | > 20000 nM | 6.1%
10 | COc1ccc2c(c1)O[C@@H](c1ccc(C(=O)O)cc1)C[C@H]2NC(=O)C(C)(C)c1ccc2c(c1)OCO2 [Example 120, 4-{(2R,4R)-4-[2-(2H-1,3-benzodioxol-5-yl)-2-methylpropanamido]-7-methoxy-3,4-dihydro-2H-1-benzopyran-2-yl}benzoic acid] | 50 nM | 73.9%
11 | COc1ccc2c(c1)O[C@@H](c1ccc(C(=O)O)cc1)C[C@H]2NC(=O)C1(c2ccccc2F)CC1 [Example 106, 4-[(2R,4R)-4-{[1-(2-fluorophenyl)cyclopropane-1-carbonyl]amino}-7-methoxy-3,4-dihydro-2H-1-benzopyran-2-yl]benzoic acid] | 1290 nM | 46.0%
12 | COc1ccc(C(C)(C)C(=O)N[C@@H]2C[C@H](c3ccc(C(=O)O)cc3)Oc3cc(OC)ccc32)cc1 [Example 121, 4-{(2R,4R)-7-methoxy-4-[2-(4-methoxyphenyl)-2-methylpropanamido]-3,4-dihydro-2H-1-benzopyran-2-yl}benzoic acid] | 70 nM | 49.6%
13 | COc1ccc2c(c1)O[C@@H](c1ccc(C(=O)O)cc1)C[C@H]2NC(=O)C1(c2ccc(C)c(OC)c2)CC1 [Example 86, 4-[(2R,4R)-7-methoxy-4-{[1-(3-methoxy-4-methylphenyl)cyclopropane-1-carbonyl]amino}-3,4-dihydro-2H-1-benzopyran-2-yl]benzoic acid] | 570 nM | 57.9%
14 | COc1ccc(C(C)(C)C(=O)NC2CC(c3ccc(OC)c(OC)c3)Oc3cc(OC)ccc32)cc1 (stereo not shown) [Example 23, N-[2-(3,4-dimethoxyphenyl)-7-methoxy-3,4-dihydro-2H-1-benzopyran-4-yl]-2-(4-methoxyphenyl)-2-methylpropanamide] | 230 nM | 54.0%
15 | COc1ccc2c(c1)O[C@@H](c1ccc(C(=O)O)cc1)C[C@H]2NC(=O)C(C)(C)c1ccc(OC)c(F)c1 [Example 113, 4-{(2R,4R)-4-[2-(3-fluoro-4-methoxyphenyl)-2-methylpropanamido]-7-methoxy-3,4-dihydro-2H-1-benzopyran-2-yl}benzoic acid] | 60 nM | 43.5%
16 | COc1ccc2c(c1)O[C@@H](c1ccc(C(=O)O)cc1)C[C@H]2NC(=O)C(C)(C)c1ccc2c(c1)OCCO2 [Example 112, 4-{(2R,4R)-4-[2-(2,3-dihydro-1,4-benzodioxin-6-yl)-2-methylpropanamido]-7-methoxy-3,4-dihydro-2H-1-benzopyran-2-yl}benzoic acid] | 360 nM | 59.9%
17 | COc1ccc2c(c1)O[C@@H](c1cccc(C(=O)O)c1)C[C@H]2NC(=O)C1(c2ccc(Br)cc2)CC1 [Example 43, 3-[(2R,4R)-4-{[1-(4-bromophenyl)cyclopropane-1-carbonyl]amino}-7-methoxy-3,4-dihydro-2H-1-benzopyran-2-yl]benzoic acid] | 280 nM | 39.1%
18 | COc1ccc2c(c1)O[C@@H](c1ccc(C(=O)O)cc1)C[C@H]2NC(=O)C1(c2ccc(Cl)cc2)CC1 [Example 108, 4-[(2R,4R)-4-{[1-(4-chlorophenyl)cyclopropane-1-carbonyl]amino}-7-methoxy-3,4-dihydro-2H-1-benzopyran-2-yl]benzoic acid] | 170 nM | 77.7%
19 | C[C@]1(C(=O)N[C@@H]2C[C@H](c3cccc(C(=O)O)c3)Oc3ccccc32)CCc2cc(Cl)ccc2O1 [Example 66, 3-[(2R,4R)-4-{[(2R)-6-chloro-2-methyl-3,4-dihydro-2H-1-benzopyran-2-carbonyl]amino}-3,4-dihydro-2H-1-benzopyran-2-yl]benzoic acid] | > 20000 nM | 4.8%
20 | COc1ccc2c(c1)CC[C@@]2(C)C(=O)N[C@@H]1C[C@H](c2ccc(C(=O)O)cc2)Oc2cc(OC)ccc21 [Example 100, 4-[(2R,4R)-7-methoxy-4-{[(1R)-5-methoxy-1-methyl-2,3-dihydro-1H-indene-1-carbonyl]amino}-3,4-dihydro-2H-1-benzopyran-2-yl]benzoic acid] | 480 nM | 55.3%
21 | COc1cccc2c1[C@@](C)(C(=O)N[C@@H]1C[C@H](c3cccc(C(=O)O)c3)Oc3ccccc31)CC2 [Example 46, 3-[(2R,4R)-4-{[(1S)-7-methoxy-1-methyl-2,3-dihydro-1H-indene-1-carbonyl]amino}-3,4-dihydro-2H-1-benzopyran-2-yl]benzoic acid] | > 20000 nM | 1.1%
22 | COc1ccc2c(c1)CC[C@]2(C)C(=O)N[C@@H]1C[C@H](c2cccc(C(=O)O)c2)Oc2cc(OC)ccc21 [Example 35, 3-[(2R,4R)-7-methoxy-4-{[(1S)-5-methoxy-1-methyl-2,3-dihydro-1H-indene-1-carbonyl]amino}-3,4-dihydro-2H-1-benzopyran-2-yl]benzoic acid] | 200 nM | 57.5%
23 | COc1ccc2c(c1)O[C@@H](c1ccc(C(=O)O)cc1)C[C@H]2NC(=O)C(C)(C)c1ccc(OC(F)(F)F)cc1 [Example 109, 4-[(2R,4R)-7-methoxy-4-{2-methyl-2-[4-(trifluoromethoxy)phenyl]propanamido}-3,4-dihydro-2H-1-benzopyran-2-yl]benzoic acid] | 1360 nM | 93.0%
24 | COc1ccc2c(c1)O[C@@H](c1ccc(C(=O)O)cc1)C[C@H]2NC(=O)C1(C)CCc2cc(C)ccc21 (stereo partly drawn) [Example 7, 4-{(2R,4R)-4-[(1,5-dimethyl-2,3-dihydro-1H-indene-1-carbonyl)amino]-7-methoxy-3,4-dihydro-2H-1-benzopyran-2-yl}benzoic acid] | 160 nM | 90.1%
25 | COc1ccc2c(c1)CC[C@@]2(C)C(=O)N[C@@H]1C[C@H](c2cccc(C(=O)O)c2)Oc2cc(OC)ccc21 [Example 33, 3-[(2R,4R)-7-methoxy-4-{[(1R)-5-methoxy-1-methyl-2,3-dihydro-1H-indene-1-carbonyl]amino}-3,4-dihydro-2H-1-benzopyran-2-yl]benzoic acid] | 270 nM | 25.9%
26 | COc1ccc2c(c1)O[C@@H](c1ccc(C(=O)O)cc1)C[C@H]2NC(=O)C1(c2ccc(Cl)cc2)CCC1 [Example 76, 4-[(2R,4R)-4-{[1-(4-chlorophenyl)cyclobutane-1-carbonyl]amino}-7-methoxy-3,4-dihydro-2H-1-benzopyran-2-yl]benzoic acid] | 2100 nM | 52.0%
